Key:
[1] = system: CNBP intron 1 in wild-type fibroblasts; experiment: CNBP intron 1 levels via RT-qPCR in wild-type fibroblasts; assay type: cell-based
Method: Cell lines and cell culture: Compounds were tested in two cell lines: (i) DM2 patient-derived fibroblasts (generous gift from University of Florida, Center for NeuroGenetics) and (ii) fibroblasts from a healthy donor (wild-type; WT GM07492; Coriell Institute). Cells were maintained at 37° ° C. with 5% CO2. DM2 fibroblasts were cultured in DMEM/high glucose (HyClone) supplemented with 20% FBS (Sigma) and 1% Antibiotic-Antimycotic solution (Corning). Wild-type fibroblasts were cultured in MEM (Corning) supplemented with 10% FBS, 1% Glutagro (Corning), and 1% Antibiotic-Antimycotic solution.
Evaluation of CNBP abundance via RT-qPCR: CNBP abundance was evaluated as previously described.^10 Briefly, cells were grown in 6-well plates and treated with the desired compound in growth medium at 40% confluency. […] Approximately 1 μg of total RNA was reverse transcribed using a qScript cDNA synthesis kit (20 μL total reaction volume, Quanta BioSciences); 2 μL of the reverse transcription (RT) reaction was used for each primer pair (Table S1) for quantitative PCR with SYBR Green Master Mix, performed on a QuantStudio 5, 384-well Block Real-Time PCR System (Applied Biosciences). Relative abundance was determined by normalizing to GAPDH (n=6 replicates per concentration; 2 independent experiments).

[2] = biological target: base-paired RNA that does not contain internal loops; experiment: Microscale thermophoresis (MST) affinity for base pair control RNA; assay type: binding
Method: (§1) Affinity measurements: Binding affinity measurements were performed via microscale thermophoresis (MST) on a Monolith NT.115 system (NanoTemperTechnologies) with Cy5-labeled (CCUG)12 (SEQ ID NO: 15) (5′-Cy5-GCG(CCUG)12CGC. SEQ ID NO:13; Dharmacon) and Cy5-labeled base pair control (BP; 5′-Cy5-GCG(CCUG)(GCAG)5CGC, SEQ ID NO:14; Dharmacon), which were deprotected according to the manufacturer's protocol and then desalted using a PD-10 column (GE LifeSciences) per the manufacturer's recommended procedure. RNA (5 nM) was prepared in 8 mM Na2HPO4, 185 mM NaCl, 1 mM EDTA and folded by heating at 60° C. for 5 min and slowly cooling to room temperature. Compound 1:1 dilution was prepared using 1×MST Buffer (8 mM Na2HPO4, 185 mM NaCl, 1 mM EDTA) and 0.1% (v/v) Tween-20 was added. After cooling the RNA solution was added to the compound solution (0.05% (v/v) Tween-20 final concentration). Samples were incubated for 30 min at room temperature and then loaded into standard capillaries (NanoTemper Technologies). […] Fluorescence was detected using excitation wavelengths of 605-645 nm and emission wavelengths of 680-685 nm. The resulting data were analyzed by thermophoresis analysis and fitted using a quadratic binding equation in the MST analysis software (NanoTemper Technologies). Dissociation constants were then determined using equation 3. […]

r(CCUG)12 = experiment: Microscale thermophoresis (MST) affinity for r(CCUG)12; assay type: binding; details: read-out: Kd,app for r(CCUG)12
Method: as §1

r(CCUG)12-MBNL1 complex = experiment: TR-FRET assay, disruption of pre-formed r(CCUG)12-MBNL1 complex; assay type: biochemical; details: in vitro, read-out: IC50 for disrupting an r(CCUG)12-MBNL1 complex
Excerpt: Of the 44 hits, 38 contained a similar substituted N2-phenylquinazoline-2,4-diamine core, while the other hits contained benzimidazoles and indazoles (Figure S2). Importantly, these 44 compounds are drug-like as they have similar physicochemical properties to the rest of the library and to known-drugs in Drug Bank (FIG. 2A). On average, the 44 hit compounds have a molecular weight of 327±35 g/mol, a cLogP of 3.2±0.9. TPSA of 76±15 Å, and 2.5±0.9 hydrogen bond donors. The in vitro potencies (IC50s) of the 44 compounds were then measured in the TR-FRET assay, affording seven compounds (1-7) with IC50s <50 μM (highlighted in red in FIGS. 2B & 2C).
In vitro IC50 measurements: IC50 measurements for disruption of r(CCUG)12-MBNL1 complex was completed using a previously reported TR-FRET assay with minor modifications.^23, 24 Briefly, 5′-biotinylated r(CCUG)12 (SEQ ID NO: 15) was folded in 1× Folding Buffer (20 mM HEPES, pH 7.5, 110 mM KCl, and 10 mM NaCl) at 60° C. for 5 min then cooled to room temperature. The buffer was adjusted to 1× Assay Buffer (20 mM HEPES, pH 7.5, 110 mM KCl, 10 mM NaCl, 2 mM MgCl2, 2 mM CaCl2), 5 mM DTT. 0.1% BSA, and 0.5% Tween-20).
Next, MBNL1-His6 was added, and the samples were incubated at room temperature for 15 min. […] The samples were incubated for 30 min at room temperature and added to a white 384-well plate, where TR-FRET was measured on a Molecular Devices SpectraMax M5 plate reader using an excitation wavelength of 345-nm and a 420-nm cutoff. The ratios of fluorescence intensity at 545 and 665 nm were calculated, and ratios in the absence of a compound and in the absence of RNA were used to calculate percent disruption. […]
[formula] • where y is ratio of fluorescence intensities at 545 nm and 665 nm (F545/F665), x is the concentration of a compound, B is F545/F665 value at max FRET effect (solution has RNA and protein but no compound added); A is F545/F665 value at min FRET effect (solution has antibodies but no RNA, protein, or compound); and the IC50 is the concentration of a compound where half of the protein is displaced by a compound.

Kd [2]: > 20000 nM | binding to base-paired RNA that does not contain internal loops [2]: no binding was observed | Kd (r(CCUG)12): 192 ± 20 nM | IC50 (r(CCUG)12-MBNL1 complex): 2200 ± 500 nM
Compound: Cc1ccc2nc(Nc3ccc4nc(C)sc4c3)nc(NCCCO)c2c1 [Compound 63, 3-((6-methyl-2-((2-methylbenzo[d]thiazol-6-yl)amino)quinazolin-4-yl)amino)propan-1-ol]
effect on CNBP intron 1 levels [1]: no effect
